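1) Cells in 96-well plates. 2) Compound, 48 h, 5 concentrations. 3) Linear interpolation between surrounding doses. 4) Unreached endpoint = highest concentration. GI50 = concentration required for 50% inhibition of growth.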 The source made the active and inactive calls. Rule as the data show it: active = GI50 up to about 1.1 µM and inactive = higher.
Tests used:
Assay in all cases: growth of human tumour cells (NCI), 48 h
NCI-H226 = test system: NCI-H226
UACC-257 = test system: UACC-257
SW-620 = test system: SW-620
M14 = test system: M14
SK-OV-3 = test system: SK-OV-3
MDA-MB-231 = test system: MDA-MB-231
LOX IMVI = test system: LOX IMVI
HCT-116 = test system: HCT-116
MCF7 = test system: MCF7
TK-10 = test system: TK-10
MOLT-4 = test system: MOLT-4
SR = test system: SR
RPMI-8226 = test system: RPMI-8226
SNB-19 = test system: SNB-19
EKVX = test system: EKVX
DU-145 = test system: DU-145
ACHN = test system: ACHN
OVCAR-3 = test system: OVCAR-3
HCC 2998 = test system: HCC 2998
NCI-H23 = test system: NCI-H23
UO-31 = test system: UO-31
KM12 = test system: KM12
SN12C = test system: SN12C
T47D = test system: T47D
SF-268 = test system: SF-268
SK-MEL-28 = test system: SK-MEL-28
NCI-H460 = test system: NCI-H460
MDA-MB-435 = test system: MDA-MB-435
Malme-3M = test system: Malme-3M
U-251 = test system: U-251
PC-3 = test system: PC-3
NCI/ADR-RES = test system: NCI/ADR-RES
COLO 205 = test system: COLO 205
SF-539 = test system: SF-539
HOP-62 = test system: HOP-62
HOP-92 = test system: HOP-92
HCT-15 = test system: HCT-15
OVCAR-8 = test system: OVCAR-8
A498 = test system: A498
NCI-H522 = test system: NCI-H522
OVCAR-4 = test system: OVCAR-4
SF-295 = test system: SF-295
CAKI-1 = test system: CAKI-1
SNB-75 = test system: SNB-75
BT-549 = test system: BT-549
Hs-578T = test system: Hs-578T
SK-MEL-5 = test system: SK-MEL-5
IGROV-1 = test system: IGROV-1
OVCAR-5 = test system: OVCAR-5
CCRF-CEM = test system: CCRF-CEM
786-0 = test system: 786-0
SK-MEL-2 = test system: SK-MEL-2
A549 = test system: A549
HT-29 = test system: HT-29
UACC-62 = test system: UACC-62
RXF 393 = test system: RXF 393
HL-60 = test system: HL-60
K562 = test system: K562

C/C(=N/NC(=O)c1ccncc1)c1ccc(NC(=O)C(=O)Nn2c(S)nc3ccccc3c2=O)cc1
GI50 (NCI-H226): > 100 µM (inactive) | GI50 (UACC-257): > 100 µM (inactive) | GI50 (SW-620): > 100 µM (inactive) | GI50 (M14): > 100 µM (inactive) | GI50 (SK-OV-3): > 100 µM (inactive) | GI50 (MDA-MB-231): > 100 µM (inactive) | GI50 (LOX IMVI): > 100 µM (inactive) | GI50 (HCT-116): > 100 µM (inactive) | GI50 (MCF7): > 100 µM (inactive) | GI50 (TK-10): > 100 µM (inactive) | GI50 (MOLT-4): > 100 µM (inactive) | GI50 (SR): > 100 µM (inactive) | GI50 (RPMI-8226): > 100 µM (inactive) | GI50 (SNB-19): > 100 µM (inactive) | GI50 (EKVX): 72.8 µM (inactive) | GI50 (DU-145): > 100 µM (inactive) | GI50 (ACHN): > 100 µM (inactive) | GI50 (OVCAR-3): > 100 µM (inactive) | GI50 (HCC 2998): > 100 µM (inactive) | GI50 (NCI-H23): > 100 µM (inactive) | GI50 (UO-31): > 100 µM (inactive) | GI50 (KM12): > 100 µM (inactive) | GI50 (SN12C): > 100 µM (inactive) | GI50 (T47D): > 100 µM (inactive) | GI50 (SF-268): > 100 µM (inactive) | GI50 (SK-MEL-28): > 100 µM (inactive) | GI50 (NCI-H460): > 100 µM (inactive) | GI50 (MDA-MB-435): > 100 µM (inactive) | GI50 (Malme-3M): > 100 µM (inactive) | GI50 (U-251): > 100 µM (inactive) | GI50 (PC-3): > 100 µM (inactive) | GI50 (NCI/ADR-RES): > 100 µM (inactive) | GI50 (COLO 205): > 100 µM (inactive) | GI50 (SF-539): > 100 µM (inactive) | GI50 (HOP-62): > 100 µM (inactive) | GI50 (HOP-92): 59 µM (inactive) | GI50 (HCT-15): > 100 µM | GI50 (OVCAR-8): > 100 µM (inactive) | GI50 (A498): > 100 µM (inactive) | GI50 (NCI-H522): > 100 µM (inactive) | GI50 (OVCAR-4): > 100 µM (inactive) | GI50 (SF-295): > 100 µM (inactive) | GI50 (CAKI-1): > 100 µM (inactive) | GI50 (SNB-75): > 100 µM (inactive) | GI50 (BT-549): > 100 µM (inactive) | GI50 (Hs-578T): > 100 µM (inactive) | GI50 (SK-MEL-5): > 100 µM (inactive) | GI50 (IGROV-1): 37.2 µM (inactive) | GI50 (OVCAR-5): > 100 µM (inactive) | GI50 (CCRF-CEM): > 100 µM (inactive) | GI50 (786-0): > 100 µM (inactive) | GI50 (SK-MEL-2): > 100 µM (inactive) | GI50 (A549): > 100 µM (inactive) | GI50 (HT-29): > 100 µM (inactive) | GI50 (UACC-62): > 100 µM (inactive) | GI50 (RXF 393): > 100 µM (inactive)

Cn1c2ccccc2n2c3ncccc3c(=O)c(C#N)c12
GI50 (HL-60): 2.09 µM (inactive) | GI50 (NCI-H226): 1.79 µM (inactive) | GI50 (UACC-257): 26.5 µM (inactive) | GI50 (SW-620): 7.85 µM (inactive) | GI50 (M14): 32.3 µM (inactive) | GI50 (SK-OV-3): 17.3 µM (inactive) | GI50 (MDA-MB-231): 17.9 µM (inactive) | GI50 (LOX IMVI): 5.96 µM (inactive) | GI50 (HCT-116): 4.81 µM (inactive) | GI50 (MCF7): 3.81 µM (inactive) | GI50 (TK-10): 50.6 µM (inactive) | GI50 (MOLT-4): 3.04 µM (inactive) | GI50 (SR): 3.73 µM (inactive) | GI50 (RPMI-8226): > 100 µM (inactive) | GI50 (SNB-19): 8.28 µM (inactive) | GI50 (EKVX): 32.8 µM (inactive) | GI50 (DU-145): 6.5 µM (inactive) | GI50 (ACHN): 3.09 µM (inactive) | GI50 (OVCAR-3): 11 µM (inactive) | GI50 (HCC 2998): 21.5 µM (inactive) | GI50 (NCI-H23): 10.2 µM (inactive) | GI50 (UO-31): 5.62 µM (inactive) | GI50 (KM12): 14.6 µM (inactive) | GI50 (SN12C): 8.49 µM (inactive) | GI50 (T47D): 15.2 µM (inactive) | GI50 (SF-268): 18 µM (inactive) | GI50 (SK-MEL-28): 44.2 µM (inactive) | GI50 (NCI-H460): 2.46 µM (inactive) | GI50 (MDA-MB-435): 26.7 µM (inactive) | GI50 (Malme-3M): 6.04 µM (inactive) | GI50 (U-251): 6.38 µM (inactive) | GI50 (PC-3): 19.5 µM (inactive) | GI50 (NCI/ADR-RES): 16.3 µM (inactive) | GI50 (COLO 205): 3.91 µM (inactive) | GI50 (HOP-62): 5.18 µM (inactive) | GI50 (HOP-92): 19.5 µM (inactive) | GI50 (HCT-15): 6.18 µM | GI50 (K562): > 100 µM (inactive) | GI50 (OVCAR-8): 5.27 µM (inactive) | GI50 (A498): 10.4 µM (inactive) | GI50 (NCI-H522): 9.02 µM (inactive) | GI50 (OVCAR-4): 30.7 µM (inactive) | GI50 (SF-295): 7.69 µM (inactive) | GI50 (CAKI-1): 5.31 µM (inactive) | GI50 (SNB-75): 12.2 µM (inactive) | GI50 (BT-549): 16.5 µM (inactive) | GI50 (Hs-578T): 18.9 µM (inactive) | GI50 (SK-MEL-5): 4.45 µM (inactive) | GI50 (IGROV-1): 5.32 µM (inactive) | GI50 (OVCAR-5): 24.5 µM (inactive) | GI50 (CCRF-CEM): 4.07 µM (inactive) | GI50 (786-0): 8.83 µM (inactive) | GI50 (SK-MEL-2): 35 µM (inactive) | GI50 (A549): 5.2 µM (inactive) | GI50 (HT-29): 5.51 µM (inactive) | GI50 (UACC-62): 8.41 µM (inactive) | GI50 (RXF 393): 16.9 µM (inactive)
